The results in this text go back to ChEMBL document CHEMBL3596169, “Pyridine hydroxamic acids are specific anti-HCV agents affecting HDAC6” (Bioorg Med Chem Lett, 2015).

Activity calls are given as the source filed them. The calls are words filed in the database; no cut-off is given here.

One data set has as its system Hepatitis C virus. Nature of the data set: Antiviral activity against HCV infected in human Huh-luc/neo7 cells after 72 hrs by luciferase assay. It is filed as functional, organism-based, Hepacivirus hominis.
A short description of data set [1]: Selectivity index, ratio of CC50 for human HuH7 cells transfected with luc/neo plasmid to EC50 for HCV infected in human Huh-luc/neo7 cells. Set-up: species or system Huh-7.
Data set [2] is described as follows: Cytotoxicity against human HuH7 cells transfected with luc/neo plasmid assessed as cell viability after 72 hrs by MTT method. It is filed as cell-based, Huh-7.
Data set [3] has as its target T1, Protein deacetylase HDAC6 (Homo sapiens) (UniProt Q9UBN7).
T1 sequence (whole entry): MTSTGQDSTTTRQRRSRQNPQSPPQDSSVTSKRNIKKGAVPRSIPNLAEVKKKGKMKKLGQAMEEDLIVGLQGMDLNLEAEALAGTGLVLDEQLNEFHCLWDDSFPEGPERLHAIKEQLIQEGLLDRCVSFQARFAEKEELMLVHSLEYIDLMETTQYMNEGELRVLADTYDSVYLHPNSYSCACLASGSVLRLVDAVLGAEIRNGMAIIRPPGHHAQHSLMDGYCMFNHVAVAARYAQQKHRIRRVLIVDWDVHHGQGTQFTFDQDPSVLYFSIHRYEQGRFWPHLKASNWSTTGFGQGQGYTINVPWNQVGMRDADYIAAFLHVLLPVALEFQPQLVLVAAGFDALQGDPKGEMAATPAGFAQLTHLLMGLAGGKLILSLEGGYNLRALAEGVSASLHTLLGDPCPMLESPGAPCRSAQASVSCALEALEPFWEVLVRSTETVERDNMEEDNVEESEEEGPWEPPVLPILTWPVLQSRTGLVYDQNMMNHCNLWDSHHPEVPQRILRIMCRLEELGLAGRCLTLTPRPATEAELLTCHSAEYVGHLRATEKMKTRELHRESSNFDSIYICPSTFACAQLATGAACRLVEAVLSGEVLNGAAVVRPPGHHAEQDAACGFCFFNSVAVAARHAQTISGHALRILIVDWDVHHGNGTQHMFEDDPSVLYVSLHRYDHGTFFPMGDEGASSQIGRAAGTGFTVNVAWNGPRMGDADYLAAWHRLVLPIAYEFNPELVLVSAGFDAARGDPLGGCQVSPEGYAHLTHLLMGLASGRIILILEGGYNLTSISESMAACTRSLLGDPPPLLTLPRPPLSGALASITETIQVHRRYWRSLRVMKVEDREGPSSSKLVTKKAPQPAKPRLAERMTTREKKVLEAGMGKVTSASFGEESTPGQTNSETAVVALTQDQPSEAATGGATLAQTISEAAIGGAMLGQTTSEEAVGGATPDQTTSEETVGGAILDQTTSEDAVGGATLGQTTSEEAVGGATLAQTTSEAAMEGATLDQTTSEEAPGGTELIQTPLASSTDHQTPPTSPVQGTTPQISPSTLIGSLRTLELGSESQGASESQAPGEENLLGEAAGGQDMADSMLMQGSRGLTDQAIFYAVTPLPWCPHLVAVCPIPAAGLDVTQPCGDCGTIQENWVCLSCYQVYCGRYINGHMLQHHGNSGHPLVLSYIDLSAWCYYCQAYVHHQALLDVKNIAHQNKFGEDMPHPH
Put plainly: Inhibition of HDAC6 in human Huh-luc/neo7 cells assessed as alpha-tubulin acetylation at 20 to 100 uM by Western blotting analysis. It is filed as cell-based. A general note: In western blotting, separated proteins are transferred to a membrane and probed.

The target in data set [4] is T1, Protein deacetylase HDAC6 (Homo sapiens). Nature of the data set: Inhibition of HDAC6 in human Huh-luc/neo7 cells assessed as alpha-tubulin acetylation at 3 to 24 uM by Western blotting analysis. It is filed as cell-based.
Data set [5] has the same target. Put plainly: Inhibition of HDAC6 in human Huh-luc/neo7 cells assessed as alpha-tubulin acetylation at 5 to 60 uM by Western blotting analysis. It is filed as cell-based.

As to `O=C(NO)c1ccncc1`, in the data set with Hepatitis C virus, a half-maximal response (EC50) required 17 µM. Also, the “Ratio CC50/EC50” value in data set [1] turned out to be 12. Besides, the CC50 at 72 h in data set [2] worked out at 210 µM. Further, the “HDAC6 inhibition (active/not active)” value in data set [3] is “Active”.
The compound `COc1cccnc1C(=O)NO` yielded an EC50 in the data set on Hepatitis C virus of 5 µM. In addition, the “Ratio CC50/EC50” value in data set [1] stood at 180. Further, the 50% cytotoxic concentration (CC50) at 72 h in data set [2] came out at 880 µM.
In the data set with Hepatitis C virus, `O=C(NO)c1ccccn1` gave an EC50 of 30 µM. Besides, in data set [1], the “Ratio CC50/EC50” value is reported as 24. Further, the CC50 at 72 h in data set [2] was found to be 710 µM. The “HDAC6 inhibition (active/not active)” value in data set [3] is “inactive”.
Turning to `O=C(NO)c1ccc(Cl)cc1`, in data set [4], the inhibition result was “Active”.
The compound `CONC(=O)c1ccccn1` registered an EC50 with Hepatitis C virus greater than 1000 µM. In addition, the CC50 at 72 h in data set [2] was greater than 1000 µM.
Take `CN(O)C(=O)c1cccc[n+]1[O-]`: the EC50 in the data set on Hepatitis C virus was greater than 1000 µM. Further, the CC50 at 72 h in data set [2] is greater than 1000 µM.
Turning to `O=C(NO)c1cccnc1` [NICOXAMAT], a half-maximal response in the data set on Hepatitis C virus (EC50) required 25 µM. Further, in data set [1], the “Ratio CC50/EC50” value was found to be 18. The CC50 at 72 h in data set [2] amounted to 450 µM. The “HDAC6 inhibition (active/not active)” value in data set [3] was “Active”.
Consider `O=C(NO)c1ccccc1`, for which, in data set [3], the “HDAC6 inhibition (active/not active)” value is “Active”.
`O=C(NO)c1cc[n+]([O-])cc1` registered an EC50 with Hepatitis C virus of 17 µM. In addition, the “Ratio CC50/EC50” value in data set [1] is recorded as greater than 59. For the same compound, the CC50 at 72 h in data set [2] was greater than 1000 µM. In data set [3], the “HDAC6 inhibition (active/not active)” value is “inactive”.
As for `Cn1cccc(C(=O)NO)c1=O`, the EC50 in the data set on Hepatitis C virus came to 12 µM. Also, the “Ratio CC50/EC50” value in data set [1] is reported as greater than 83. Further, in data set [2], the CC50 at 72 h was greater than 1000 µM.
`Cc1ccc(C(=O)NO)cc1`: the inhibition result in data set [5] was “Active”.
As to `CN(O)C(=O)c1ccccn1`, a half-maximal response in the data set on Hepatitis C virus (EC50) required 240 µM. The “Ratio CC50/EC50” value in data set [1] is recorded as greater than 4. For the same compound, the CC50 at 72 h in data set [2] is greater than 1000 µM.
Turning to `O=C(NO)c1ccc[n+]([O-])c1`, the EC50 with Hepatitis C virus is 20 µM. In data set [1], the “Ratio CC50/EC50” value is on record as greater than 50. Besides, the CC50 at 72 h in data set [2] was greater than 1000 µM. Moreover, the “HDAC6 inhibition (active/not active)” value in data set [3] is “Active”.
Compound `O=C(NO)c1ncccc1Cl` had an EC50 in the data set with Hepatitis C virus of 8 µM. The “Ratio CC50/EC50” value in data set [1] is on record as 100. Besides, the cytotoxic concentration (CC50) at 72 h in data set [2] worked out at 800 µM.
For the compound `O=C(NO)c1cccc[n+]1[O-]`, the EC50 in the data set on Hepatitis C virus worked out at 6 µM. For the same compound, the “Ratio CC50/EC50” value in data set [1] amounted to 150. For the same compound, the cytotoxic concentration (CC50) at 72 h in data set [2] was determined as 900 µM. In addition, the “HDAC6 inhibition (active/not active)” value in data set [3] is “inactive”.

Usually EC50 stands for the concentration needed to bring the measured effect to its halfway point. The CC50 is the concentration that lowers cell viability or growth by half.
